According to patent US20230218632A1, “CYCLIC SULFONAMIDE DERIVATIVES AS TRAP1 MODULATORS AND USES THEREOF” (Amathus Therapeutics, Inc., priority 2020, published 2023):

What was measured:
mIMCD3 Pkd1 KO cells = assay: Mouse cell derived cyst assay; assay type: cell-based; settings: Pkd 1 KO mouse cell derived cyst forming assay; FIG. 6
Description: Mouse cell derived cyst assays were performed as described in Booij, Tijmen H et al., SLAS discovery: advancing life sciences R & D vol. 22,8 (2017): 974-984, or as described below.
Murine inner medullary collecting duct cell line (mIMCD3 Pkd1^-/- cells) • mIMCD3 Pkd1 KO cells were seeded in 384 wells plates in extracellular matrix. • 4 days after seeding, cultures were co-exposed to treatments and stimuli (2.5 µM forskolin); • After 72 h, cultures were fixed, stained for nuclei and actin cytoskeleton and imaged with 4x magnification; and • Image analysis of the 3D stack was done using Ominer™ image analysis software.

[1] = system: primary rat dopaminergic neurons; assay: ROS production in primary rat dopaminergic TH-positive neurons after 6-OHDA injury; assay type: cell-based; settings: after injury with 6-OHDA (20 µM, 4 h); FIG. 1
Description: Rat dopaminergic neurons were cultured as described by Visanji et al., 2008. Briefly, pregnant female rat of 15 days of gestation are sacrificed using a deep anesthesia with CO2 chamber and a cervical dislocation. The midbrains obtained from 15-day-old rat embryos are dissected under a microscope. The embryonic midbrains are removed and placed in ice-cold medium of Leibovitz (L15) containing 2% of Penicillin- Streptomycin (PS) and 1% of bovine serum albumin (BSA). The ventral portion of the mesencephalic flexure, a region of the developing brain rich in dopaminergic neurons, is used for the cell preparations.
The midbrains are dissociated by trypsinisation for 20 min at 37° C. (solution at a final concentration of 0.05% trypsin and 0.02% EDTA). The reaction is stopped by the addition of Dulbecco’s modified Eagle’s medium (DMEM) containing DNAase I grade II (0.5 mg/mL) and 10% of foetal calf serum (FCS). Cells are then mechanically dissociated by 3 passages through a 10 mL pipette. Cells are then centrifuged at 180 x g for 10 min at +4° C. on a layer of BSA (3.5%) in L15 medium. […] Viable cells are counted in a Neubauer cytometer using the trypan blue exclusion test. […] Six wells per condition are assessed. […]

O=C(Nc1ccc2c(c1)S(=O)(=O)N(c1ccc(Br)cc1)CCO2)c1cnc(-c2ccccc2)[nH]1 [Compound 1331, N-(2-(4-bromophenyl)-1,1-dioxido-3,4-dihydro-2H-benzo[b][1,4,5]oxathiazepin-8-yl)-2-phenyl-1H-imidazole-5-carboxamide]
cyst formation (mIMCD3 Pkd1 KO cells): preventing cyst formation
ROS production [1]: reduction in ROS
